Read-outs that look alike come from different tables or passages of the source.
What was measured:
Assay type in all cases: cell-based, mice
hTNF-activated wt SFs = test: CCL5 and CCL20 ELISA on hTNF-activated wild type synovial fibroblasts; conditions: for activity at 10 µM / activity at 50 µM / IC50 / activity at 25 µM: Mus musculus, Fibroblast; for activity at 10 µM / activity at 50 µM / activity at 25 µM / CCL5 WT, percentage of level in untreated cells / CCL20 WT, percentage of level in untreated cells: 48 h; for activity at 50 µM: compound 50 μM; for IC50: 10 ng/ml hTNF stimulation
Source text: (§1) Primary SFs were derived from a) human TNF transgenic (hTNFTg) mice (Keffer et al., 1991) as well as from b) CBA/C57BL6 wild type mice.
By testing the compounds in a) and b) we accessed their effect on the activated SFs phenotype caused by both the endogenous hTNF upregulation and the exogenous hTNF administration. In this way it was confirm the ability of the compounds of the invention to act in the TNF pathway directly downstream of TNF.
(§2) SFs were isolated as previously described by Armaka et al., 2009, from the ankle joints of hTNFtg or CBA/C57BL6 wild type (wt) littermates. Briefly, ankle joints were digested with Collagenase IV (Sigma Aldrich, C5138) for 45 minutes at a 37° C. shaking waterbath and after 5 days in culture at 37° C. and 5% CO2, a depletion of CD45+ lineage cells was performed using a Biotin anti-mouse CD45 Antibody (Biolegend, 103104) and Dynabeads™ Biotin Binder (ThermoFisher 11047), according to the manufacturer's protocol. After 10 days in culture, SFs were seeded overnight (O/N) at a concentration of 2×10^4 cells/well in a 96 well plate in 1×DMEM, supplemented with 100 U/ml Penicillin Streptomycin (P/S) and 10% Fetal Bovine Serum (FBS). The next day the cells were synchronized by starvation that included their O/N plating in low serum medium (0.5% FBS). Following the O/N starvation, the hTNFg and the WT SFs were treated with different concentrations of the experimental compounds. The SFs were at the same time activated with 10 ng/ml hTNF (Peprotech, 300-01A). 48 h following the treatment the cell culture supernatants were collected and analyzed by ELISA (R&S Systems, Duoset, DY478 and DY760) according to the manufacturer's protocol, for the detection of CCL5/Rantes and CCL20/Mip3, two known inflammatory chemokines. The IC50 values were determined as the concentration of the compounds required to reduce the levels of secreted CCL5 and CCL20 by 50%.
In order to determine the efficiency of the compounds of the invention, the same protocol was repeated with some minor modifications. Mainly, the concentration of hTNF was 10-fold reduced, i.e., adjusted to 1 ng/ml, and the SFs were seeded overnight at a concentration of 10^4 cells/well.
(§3) Table 7 summarizes the reduction of CCL5 and CCL20 levels achieved with the test compounds of the invention. Data are presented as percentages of the chemokine levels detected in treated cells compared to 100% levels of the chemokines detected in the untreated cells.
(§4) Table 8 summarizes the values of IC50 and toxicity for the test compounds of the invention. Dose response curves regarding the WT SFs were produced with 10 ng/ml hTNF stimulation for all compounds, with the exception of the compounds E and F, where WT cells were induced using hTNF at 1 ng/ml: […]

hTNFtg SFs = test: CCL5 and CCL20 ELISA on hTNFtg synovial fibroblasts; conditions: Mus musculus, Fibroblast; for activity at 10 µM: compound 10 μM; for activity at 10 µM / activity at 50 µM / activity at 25 µM: 48 h; for activity at 50 µM: compound 50 μM; for activity at 25 µM: compound 25 μM
Procedure: as §1
hTNFtg mice overexpress human TNF, resulting in the spontaneous development of arthritis.
as §2, §3, §4

SFs and PMCs = test: Compound cytotoxicity, Crystal Violet assay
Procedure: The toxicity of the test compounds was assessed at several concentrations using the Crystal Violet assay on both SFs and PMCs. Adherent viable cells were Methanol fixed and stained with Crystal Violet. Optical density was quantified at […], as described in Feoktistova et al., 2016.

[1] = 10 ng/mL hTNF, compound 10 μM, read-out: CCL5 WT, percentage of level in untreated cells
[2] = 10 ng/mL hTNF, compound 10 μM, read-out: CCL20 WT, percentage of level in untreated cells
[3] = read-out: CCL5 hTNFtg, percentage of level in untreated cells
[4] = read-out: CCL20 hTNFtg, percentage of level in untreated cells
[5] = read-out: IC50 (μM) CCL5 hTNFtg
[6] = read-out: IC50 (μM) CCL20 hTNFtg

Row | Structure (SMILES) | activity at 10 µM (hTNF-activated wt SFs; [1]) | activity at 10 µM (hTNF-activated wt SFs; [2]) | IC50 (hTNF-activated wt SFs; read-out: IC50 (μM) CCL5 WT) | IC50 (hTNF-activated wt SFs; read-out: IC50 (μM) CCL20 WT) | activity at 10 µM (hTNFtg SFs; [3]) | activity at 10 µM (hTNFtg SFs; [4]) | IC50 (hTNFtg SFs; [5]) | IC50 (hTNFtg SFs; [6]) | Cell Toxicity (SFs and PMCs) | activity at 25 µM (hTNFtg SFs; [3]) | activity at 25 µM (hTNFtg SFs; [4]) | further results
1 | COc1cc(N)c(Cl)cc1C(=O)NCC1(N2CCSCC2)CCCCCC1 [Compound 44, 4-amino-5-chloro-2-methoxy-N-((1-thiomorpholinocycloheptyl)methyl)benzamide] | 30% | 75% | 3.7 µM | ~65 µM | 69% | 45% | 12.6 µM | ~15 µM | >100 µM | – | – | activity at 50 µM (hTNF-activated wt SFs; 10 ng/mL hTNF, read-out: CCL5 WT, percentage of level in untreated cells): 2%; activity at 50 µM (hTNF-activated wt SFs; 10 ng/mL hTNF, read-out: CCL20 WT, percentage of level in untreated cells): 46%; activity at 50 µM (hTNFtg SFs; [3]): 26%; activity at 50 µM (hTNFtg SFs; [4]): 27%
2 | COc1cc(N)c(Cl)cc1C(=O)NCC1(c2ccc(F)cc2)CCCCCC1 [Compound 57, 4-amino-5-chloro-N-((1-(4-fluorophenyl)cycloheptyl)methyl)-2-methoxybenzamide] | 49% | 13% | 18 µM | 3.5 µM | 40% | 27% | 4 µM | 2.4 µM | >25 µM | 40% | 25% | activity at 25 µM (hTNF-activated wt SFs; 10 ng/mL hTNF, compound 25 μM, read-out: CCL5 WT, percentage of level in untreated cells): 14%; activity at 25 µM (hTNF-activated wt SFs; 10 ng/mL hTNF, compound 25 μM, read-out: CCL20 WT, percentage of level in untreated cells): 6%
3 | COc1cc(N)c(Cl)cc1C(=O)NCC1(c2ccc(F)cc2Cl)CCCCCC1 [Compound 58, 4-amino-5-chloro-N-((1-(2-chloro-4-fluorophenyl)cycloheptyl)methyl)-2-methoxybenzamide] | – | 48.5% | 2.96 µM | 2.44 µM | 64% | 32.5% | 0.95 µM | 0.74 µM | >50 µM | 53.5% | 22.5% | CCL5 WT, percentage of level in untreated cells (hTNF-activated wt SFs; 1 ng/mL hTNF, compound 10 μM): 8%; CCL5 WT, percentage of level in untreated cells (hTNF-activated wt SFs; 1 ng/mL hTNF, compound 25 μM): 9%; CCL20 WT, percentage of level in untreated cells (hTNF-activated wt SFs; 1 ng/mL hTNF, compound 25 μM): 14%; CCL5 WT, percentage of level in untreated cells (hTNF-activated wt SFs; 10 ng/mL hTNF, compound 10 μM): 0%; CCL5 WT, percentage of level in untreated cells (hTNF-activated wt SFs; 10 ng/mL hTNF, compound 25 μM): 0%; CCL20 WT, percentage of level in untreated cells (hTNF-activated wt SFs; 10 ng/mL hTNF, compound 25 μM): 0%; activity at 10 µM (hTNF-activated wt SFs; 1 ng/mL hTNF, compound 10 μM, read-out: CCL20 WT, percentage of level in untreated cells): 15%
